Assays:
[1] = target: Epithelial discoidin domain-containing receptor 1 (Homo sapiens) (UniProt Q08345); conditions: Compound concentration 1000.0 nM
[2] = target: Mitogen-activated protein kinase 14 (Homo sapiens) (UniProt Q16539); conditions: Compound concentration 1000.0 nM
[3] = target: Phosphatidylinositol 4-phosphate 5-kinase type-1 alpha (Homo sapiens) (UniProt Q99755); conditions: Compound concentration 1000.0 nM
[4] = target: Serine/threonine-protein kinase 17A (Homo sapiens) (UniProt Q9UEE5); conditions: Compound concentration 1000.0 nM
[5] = target: Protein kinase C epsilon type (Homo sapiens) (UniProt Q02156); conditions: Compound concentration 1000.0 nM
[6] = target: Casein kinase II subunit alpha' (Homo sapiens) (UniProt P19784); conditions: Compound concentration 1000.0 nM
[7] = target: 5-hydroxytryptamine receptor 5A (Homo sapiens) (UniProt P47898); conditions: Compound concentration 10.0 uM
[8] = system: Phosphatidylinositol 4,5-bisphosphate 3-kinase catalytic subunit alpha isoform (Homo sapiens), P42336 [M1043I]; conditions: Compound concentration 1000.0 nM
[9] = system: Tyrosine-protein kinase ABL1 (Homo sapiens), P00519 [Q252H]; conditions: Compound concentration 1000.0 nM
[10] = system: Tyrosine-protein kinase ABL1 (Homo sapiens), P00519 [M351T]; conditions: Compound concentration 1000.0 nM
[11] = target: GABA-A receptor; anion channel (Rattus norvegicus) (UniProt O09028+P15431+P18506+P18508+P19969+P20236+P23574+P23576+P28471+P28473+P30191+P62813+P63079+P63138+Q91ZM7+Q9ES14); conditions: Compound concentration 10.0 uM
[12] = target: Serine/threonine-protein kinase Nek3 (Homo sapiens) (UniProt P51956); conditions: Compound concentration 1000.0 nM
[13] = target: Glycogen synthase kinase-3 alpha (Homo sapiens) (UniProt P49840); conditions: Compound concentration 1000.0 nM
[14] = target: Serine/threonine-protein kinase 32A (Homo sapiens) (UniProt Q8WU08); conditions: Compound concentration 1000.0 nM
[15] = target: Dual specificity mitogen-activated protein kinase kinase 7 (Homo sapiens) (UniProt O14733); conditions: Compound concentration 1000.0 nM
[16] = target: Cyclin-dependent kinase-like 1 (Homo sapiens) (UniProt Q00532); conditions: Compound concentration 1000.0 nM
[17] = target: Mitogen-activated protein kinase kinase kinase 2 (Homo sapiens) (UniProt Q9Y2U5); conditions: Compound concentration 1000.0 nM
[18] = target: Protein kinase C theta type (Homo sapiens) (UniProt Q04759); conditions: Compound concentration 1000.0 nM
[19] = target: SRSF protein kinase 1 (Homo sapiens) (UniProt Q96SB4); conditions: Compound concentration 1000.0 nM
[20] = target: Serine/threonine-protein kinase 38-like (Homo sapiens) (UniProt Q9Y2H1); conditions: Compound concentration 1000.0 nM
[21] = target: Histamine H3 receptor (Homo sapiens) (UniProt Q9Y5N1); conditions: Compound concentration 10.0 uM
[22] = target: Serine/threonine-protein kinase 35 (Homo sapiens) (UniProt Q8TDR2); conditions: Compound concentration 1000.0 nM
[23] = target: Casein kinase I isoform gamma-1 (Homo sapiens) (UniProt Q9HCP0); conditions: Compound concentration 1000.0 nM
[24] = target: Vascular endothelial growth factor receptor 3 (Homo sapiens) (UniProt P35916); conditions: Compound concentration 1000.0 nM
[25] = target: Serine/threonine-protein kinase PAK 4 (Homo sapiens) (UniProt O96013); conditions: Compound concentration 1000.0 nM
[26] = target: Serine/threonine-protein kinase N2 (Homo sapiens) (UniProt Q16513); conditions: Compound concentration 1000.0 nM
[27] = target: Mitogen-activated protein kinase kinase kinase 14 (Homo sapiens) (UniProt Q99558); conditions: Compound concentration 1000.0 nM
[28] = target: MAP kinase-interacting serine/threonine-protein kinase 2 (Homo sapiens) (UniProt Q9HBH9); conditions: Compound concentration 1000.0 nM
[29] = target: Inhibitor of nuclear factor kappa-B kinase subunit beta (Homo sapiens) (UniProt O14920); conditions: Compound concentration 1000.0 nM
[30] = target: Mitogen-activated protein kinase kinase kinase kinase 2 (Homo sapiens) (UniProt Q12851); conditions: Compound concentration 1000.0 nM
[31] = target: Phosphatidylinositol 3-kinase catalytic subunit type 3 (Homo sapiens) (UniProt Q8NEB9); conditions: Compound concentration 1000.0 nM
[32] = target: Phosphatidylinositol 4-kinase beta (Homo sapiens) (UniProt Q9UBF8); conditions: Compound concentration 1000.0 nM
[33] = target: Serine/threonine-protein kinase MRCK alpha (Homo sapiens) (UniProt Q5VT25); conditions: Compound concentration 1000.0 nM
[34] = target: NT-3 growth factor receptor (Homo sapiens) (UniProt Q16288); conditions: Compound concentration 1000.0 nM
[35] = target: Ephrin type-A receptor 4 (Homo sapiens) (UniProt P54764); conditions: Compound concentration 1000.0 nM
[36] = target: Serine/threonine-protein kinase ULK2 (Homo sapiens) (UniProt Q8IYT8); conditions: Compound concentration 1000.0 nM
[37] = target: Ribosomal protein S6 kinase alpha-5 (Homo sapiens) (UniProt O75582); conditions: Compound concentration 1000.0 nM
[38] = system: Epidermal growth factor receptor (Homo sapiens), P00533 [T790M]; conditions: Compound concentration 1000.0 nM
[39] = target: Aurora kinase A (Homo sapiens) (UniProt O14965); conditions: Compound concentration 1000.0 nM
[40] = target: Peripheral plasma membrane protein CASK (Homo sapiens) (UniProt O14936); conditions: Compound concentration 1000.0 nM
[41] = system: Phosphatidylinositol 4,5-bisphosphate 3-kinase catalytic subunit alpha isoform (Homo sapiens), P42336 [C420R]; conditions: Compound concentration 1000.0 nM
[42] = target: TGF-beta receptor type-2 (Homo sapiens) (UniProt P37173); conditions: Compound concentration 1000.0 nM
[43] = target: Atypical kinase COQ8A, mitochondrial (Homo sapiens) (UniProt Q8NI60); conditions: Compound concentration 1000.0 nM
[44] = target: Homeodomain-interacting protein kinase 4 (Homo sapiens) (UniProt Q8NE63); conditions: Compound concentration 1000.0 nM

Sequence of Phosphatidylinositol 3-kinase catalytic subunit type 3 (Homo sapiens) (Q8NEB9 whole entry): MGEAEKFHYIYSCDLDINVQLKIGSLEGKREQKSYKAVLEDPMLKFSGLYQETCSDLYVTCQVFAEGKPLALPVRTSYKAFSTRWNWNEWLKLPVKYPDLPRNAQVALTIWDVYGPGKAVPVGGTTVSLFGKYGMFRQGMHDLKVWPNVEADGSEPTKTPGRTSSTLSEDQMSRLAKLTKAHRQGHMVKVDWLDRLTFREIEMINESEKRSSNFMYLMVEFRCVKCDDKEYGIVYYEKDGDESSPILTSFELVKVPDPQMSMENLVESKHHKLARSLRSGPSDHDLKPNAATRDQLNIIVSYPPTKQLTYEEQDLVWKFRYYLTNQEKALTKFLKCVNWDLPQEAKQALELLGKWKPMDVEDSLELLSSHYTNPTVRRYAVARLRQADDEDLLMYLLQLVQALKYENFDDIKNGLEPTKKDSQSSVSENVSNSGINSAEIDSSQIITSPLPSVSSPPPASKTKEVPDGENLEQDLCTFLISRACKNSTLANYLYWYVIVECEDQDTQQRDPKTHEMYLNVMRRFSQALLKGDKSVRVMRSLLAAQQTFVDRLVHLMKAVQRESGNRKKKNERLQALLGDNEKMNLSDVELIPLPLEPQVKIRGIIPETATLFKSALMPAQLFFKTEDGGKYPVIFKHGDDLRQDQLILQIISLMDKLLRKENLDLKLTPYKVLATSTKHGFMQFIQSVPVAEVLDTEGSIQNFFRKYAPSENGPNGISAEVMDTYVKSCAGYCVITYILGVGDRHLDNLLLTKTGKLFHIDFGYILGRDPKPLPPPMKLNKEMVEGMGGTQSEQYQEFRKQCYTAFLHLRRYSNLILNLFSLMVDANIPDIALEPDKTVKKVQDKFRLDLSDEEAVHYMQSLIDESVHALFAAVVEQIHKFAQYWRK
Sequence of Vascular endothelial growth factor receptor 3 (Homo sapiens) (P35916 whole entry): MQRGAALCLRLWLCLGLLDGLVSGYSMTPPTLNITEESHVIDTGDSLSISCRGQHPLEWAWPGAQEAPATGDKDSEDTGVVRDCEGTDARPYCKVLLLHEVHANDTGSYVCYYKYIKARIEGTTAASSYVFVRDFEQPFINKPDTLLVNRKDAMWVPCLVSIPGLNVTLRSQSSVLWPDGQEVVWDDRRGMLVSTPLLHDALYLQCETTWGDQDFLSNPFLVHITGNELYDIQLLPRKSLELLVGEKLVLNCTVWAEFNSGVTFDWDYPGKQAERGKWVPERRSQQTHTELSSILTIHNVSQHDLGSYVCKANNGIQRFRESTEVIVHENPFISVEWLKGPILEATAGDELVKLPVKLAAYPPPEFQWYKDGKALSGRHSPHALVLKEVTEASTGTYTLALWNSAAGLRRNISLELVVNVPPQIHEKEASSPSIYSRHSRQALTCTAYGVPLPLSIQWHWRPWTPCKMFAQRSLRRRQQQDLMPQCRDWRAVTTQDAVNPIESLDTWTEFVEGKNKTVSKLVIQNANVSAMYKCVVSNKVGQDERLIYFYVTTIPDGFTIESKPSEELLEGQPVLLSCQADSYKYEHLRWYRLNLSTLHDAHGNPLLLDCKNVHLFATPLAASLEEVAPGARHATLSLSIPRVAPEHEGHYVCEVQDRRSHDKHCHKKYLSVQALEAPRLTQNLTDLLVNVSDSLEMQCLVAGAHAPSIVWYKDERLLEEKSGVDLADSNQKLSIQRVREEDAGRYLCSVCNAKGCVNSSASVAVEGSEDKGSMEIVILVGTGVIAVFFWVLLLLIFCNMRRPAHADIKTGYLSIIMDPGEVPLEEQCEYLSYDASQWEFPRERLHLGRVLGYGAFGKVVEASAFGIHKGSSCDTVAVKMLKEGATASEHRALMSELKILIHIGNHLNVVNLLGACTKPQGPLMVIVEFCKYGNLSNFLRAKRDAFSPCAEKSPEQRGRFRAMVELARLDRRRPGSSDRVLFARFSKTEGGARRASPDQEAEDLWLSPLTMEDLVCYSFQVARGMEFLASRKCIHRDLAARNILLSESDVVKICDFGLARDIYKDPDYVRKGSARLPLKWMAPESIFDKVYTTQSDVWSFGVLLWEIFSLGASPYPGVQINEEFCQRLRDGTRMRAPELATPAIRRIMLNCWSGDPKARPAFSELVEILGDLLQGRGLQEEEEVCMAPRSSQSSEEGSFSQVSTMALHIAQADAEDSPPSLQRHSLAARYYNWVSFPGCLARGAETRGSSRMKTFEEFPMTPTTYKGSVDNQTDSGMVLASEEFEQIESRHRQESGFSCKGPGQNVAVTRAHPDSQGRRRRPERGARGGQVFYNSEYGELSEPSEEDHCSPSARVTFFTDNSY
Sequence of Glycogen synthase kinase-3 alpha (Homo sapiens) (P49840 2-483 limits assumed): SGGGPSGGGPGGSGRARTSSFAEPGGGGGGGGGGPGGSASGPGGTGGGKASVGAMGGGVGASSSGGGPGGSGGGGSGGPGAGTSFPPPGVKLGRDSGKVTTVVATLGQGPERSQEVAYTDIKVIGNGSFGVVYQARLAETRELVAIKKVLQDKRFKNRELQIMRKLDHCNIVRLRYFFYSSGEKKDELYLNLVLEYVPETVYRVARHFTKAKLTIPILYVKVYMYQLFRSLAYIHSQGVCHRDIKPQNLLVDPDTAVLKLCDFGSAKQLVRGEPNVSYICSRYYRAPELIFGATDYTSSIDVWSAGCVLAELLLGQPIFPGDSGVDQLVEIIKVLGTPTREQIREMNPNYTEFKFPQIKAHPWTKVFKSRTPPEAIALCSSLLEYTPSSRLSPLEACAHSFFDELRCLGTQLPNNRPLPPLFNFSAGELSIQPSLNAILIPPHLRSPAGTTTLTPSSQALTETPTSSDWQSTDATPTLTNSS
Sequence of Serine/threonine-protein kinase 17A (Homo sapiens) (Q9UEE5 whole entry): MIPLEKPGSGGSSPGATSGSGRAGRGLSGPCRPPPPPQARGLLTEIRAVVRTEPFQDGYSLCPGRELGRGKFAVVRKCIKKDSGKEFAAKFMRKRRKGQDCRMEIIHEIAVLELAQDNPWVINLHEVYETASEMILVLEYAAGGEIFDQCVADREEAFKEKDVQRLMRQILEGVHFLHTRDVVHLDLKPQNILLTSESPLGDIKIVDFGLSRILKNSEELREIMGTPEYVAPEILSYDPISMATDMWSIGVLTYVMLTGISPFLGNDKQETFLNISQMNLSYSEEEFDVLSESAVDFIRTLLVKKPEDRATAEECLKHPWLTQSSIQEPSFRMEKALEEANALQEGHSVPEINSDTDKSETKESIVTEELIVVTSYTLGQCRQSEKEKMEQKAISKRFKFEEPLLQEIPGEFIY
Sequence of MAP kinase-interacting serine/threonine-protein kinase 2 (Homo sapiens) (Q9HBH9 whole entry, looked up): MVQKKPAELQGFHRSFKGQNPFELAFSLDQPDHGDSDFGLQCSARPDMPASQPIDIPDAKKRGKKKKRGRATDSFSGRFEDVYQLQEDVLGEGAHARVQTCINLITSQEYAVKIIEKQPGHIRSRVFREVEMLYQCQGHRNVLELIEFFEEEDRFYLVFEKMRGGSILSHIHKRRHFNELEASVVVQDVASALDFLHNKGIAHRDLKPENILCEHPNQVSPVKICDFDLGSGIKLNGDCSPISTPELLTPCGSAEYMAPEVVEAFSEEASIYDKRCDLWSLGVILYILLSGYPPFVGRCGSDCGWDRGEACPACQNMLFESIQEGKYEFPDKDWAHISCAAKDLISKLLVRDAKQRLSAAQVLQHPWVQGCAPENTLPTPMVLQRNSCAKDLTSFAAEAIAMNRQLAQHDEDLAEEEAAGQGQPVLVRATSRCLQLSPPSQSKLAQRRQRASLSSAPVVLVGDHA
Sequence of Serine/threonine-protein kinase 35 (Homo sapiens) (Q8TDR2 whole entry, canonical isoform): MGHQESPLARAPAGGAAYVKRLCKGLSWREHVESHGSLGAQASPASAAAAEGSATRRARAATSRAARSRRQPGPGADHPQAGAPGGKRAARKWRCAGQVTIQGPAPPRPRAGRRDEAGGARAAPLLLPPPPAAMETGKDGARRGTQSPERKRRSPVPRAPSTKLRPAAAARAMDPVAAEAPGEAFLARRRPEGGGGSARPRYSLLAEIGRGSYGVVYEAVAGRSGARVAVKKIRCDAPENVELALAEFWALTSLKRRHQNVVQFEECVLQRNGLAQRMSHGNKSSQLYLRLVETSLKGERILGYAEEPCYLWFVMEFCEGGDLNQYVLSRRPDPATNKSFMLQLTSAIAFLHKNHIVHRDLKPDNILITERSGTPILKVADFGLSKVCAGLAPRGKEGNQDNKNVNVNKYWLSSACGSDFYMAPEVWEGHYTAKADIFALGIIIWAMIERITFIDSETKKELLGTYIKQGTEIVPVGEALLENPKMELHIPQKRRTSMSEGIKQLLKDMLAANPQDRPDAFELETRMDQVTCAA
Sequence of Serine/threonine-protein kinase Nek3 (Homo sapiens) (P51956 whole entry): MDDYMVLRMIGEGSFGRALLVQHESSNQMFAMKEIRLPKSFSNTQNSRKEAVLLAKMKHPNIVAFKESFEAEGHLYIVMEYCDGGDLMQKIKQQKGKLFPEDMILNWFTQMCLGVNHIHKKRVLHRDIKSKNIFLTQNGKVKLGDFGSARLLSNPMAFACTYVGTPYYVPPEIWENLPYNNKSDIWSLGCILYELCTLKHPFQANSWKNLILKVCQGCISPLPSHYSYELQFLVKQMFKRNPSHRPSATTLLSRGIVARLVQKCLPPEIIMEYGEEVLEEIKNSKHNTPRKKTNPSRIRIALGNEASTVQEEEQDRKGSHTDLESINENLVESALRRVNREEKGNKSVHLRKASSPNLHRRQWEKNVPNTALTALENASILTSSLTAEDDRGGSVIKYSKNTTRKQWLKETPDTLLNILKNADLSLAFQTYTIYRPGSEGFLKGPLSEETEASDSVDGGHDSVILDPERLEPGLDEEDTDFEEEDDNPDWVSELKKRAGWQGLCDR
Sequence of Cyclin-dependent kinase-like 1 (Homo sapiens) (Q00532 whole entry): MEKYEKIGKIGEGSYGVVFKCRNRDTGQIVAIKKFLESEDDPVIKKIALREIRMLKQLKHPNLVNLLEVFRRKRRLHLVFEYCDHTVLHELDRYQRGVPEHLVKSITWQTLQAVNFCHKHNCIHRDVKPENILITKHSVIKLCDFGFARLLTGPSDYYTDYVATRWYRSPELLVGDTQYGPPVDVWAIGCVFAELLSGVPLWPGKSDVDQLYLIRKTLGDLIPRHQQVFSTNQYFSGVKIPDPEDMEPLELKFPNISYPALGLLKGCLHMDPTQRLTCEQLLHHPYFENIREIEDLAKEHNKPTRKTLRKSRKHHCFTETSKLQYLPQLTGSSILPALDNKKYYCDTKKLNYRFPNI

`O=C(NC[C@@H]1[C@H]2CN(C(=O)OCc3cc(C(F)(F)F)cc(C(F)(F)F)c3)C[C@@H]12)c1ccc2[nH]nnc2c1` [BI 2545] was tested, and the residual activity [1] was 83%, the residual activity [2] was 100% and the residual activity [3] was 93%. The residual activity [4] was 95%, the residual activity [5] was 100% and the residual activity [6] was 92%. The inhibition [7] was 33.2%, the residual activity [8] was 95% and the residual activity [9] was 100%. For the same compound, the residual activity [10] was 98%, the inhibition [11] was -4.02% and the residual activity [12] was 100%. It also gave a residual activity [13] of 99%, a residual activity [14] of 72% and a residual activity [15] of 95%. It also gave a residual activity [16] of 84%, a residual activity [17] of 80% and a residual activity [18] of 100%. The residual activity [19] was 81%, the residual activity [20] was 45% and the inhibition [21] was -5.26%. The residual activity [22] was 100%, the residual activity [23] was 97% and the residual activity [24] was 88%. For the same compound, the residual activity [25] was 100%, the residual activity [26] was 93% and the residual activity [27] was 77%. It also gave a residual activity [28] of 90%, a residual activity [29] of 88% and a residual activity [30] of 92%. It also gave a residual activity [31] of 72%, a residual activity [32] of 100% and a residual activity [33] of 100%. It also gave a residual activity [34] of 91%, a residual activity [35] of 82% and a residual activity [36] of 97%. The residual activity [37] was 100%, the residual activity [38] was 78% and the residual activity [39] was 93%. For the same compound, the residual activity [40] was 70%, the residual activity [41] was 95% and the residual activity [42] was 100%. The residual activity [43] was 100% and the residual activity [44] was 100%.
`Cc1nccc(COC(=O)N2C[C@@H]3[C@@H](CNC(=O)c4ccc5[nH]nnc5c4)[C@@H]3C2)n1` [BI 3017] showed a residual activity [1] of 100%, a residual activity [2] of 100% and a residual activity [3] of 100%. It also gave a residual activity [4] of 79%, a residual activity [5] of 100% and a residual activity [6] of 85%. The inhibition [7] was 13.2%, the residual activity [8] was 100% and the residual activity [9] was 93%. It also gave a residual activity [10] of 95%, an inhibition [11] of 14.2% and a residual activity [12] of 100%. For the same compound, the residual activity [13] was 82%, the residual activity [14] was 94% and the residual activity [15] was 100%. It also gave a residual activity [16] of 81%, a residual activity [17] of 100% and a residual activity [18] of 91%. The residual activity [19] was 80%, the residual activity [20] was 70% and the inhibition [21] was 9.03%. It also gave a residual activity [22] of 83%, a residual activity [23] of 100% and a residual activity [24] of 100%. The residual activity [25] was 100%, the residual activity [26] was 100% and the residual activity [27] was 66%. It also gave a residual activity [28] of 90%, a residual activity [29] of 96% and a residual activity [30] of 84%. It also gave a residual activity [31] of 94%, a residual activity [32] of 97% and a residual activity [33] of 100%. The residual activity [34] was 90%, the residual activity [35] was 98% and the residual activity [36] was 77%. The residual activity [37] was 95%, the residual activity [38] was 91% and the residual activity [39] was 91%. The residual activity [40] was 72%, the residual activity [41] was 97% and the residual activity [42] was 100%. It also gave a residual activity [43] of 84% and a residual activity [44] of 84%.

Reference: ChEMBL document CHEMBL4507275, “Data for DCP probe BI-2545” (2021)
